Laboratory results reported in patent publication US20230240297A1, “SELECTIVE HERBICIDES BASED ON SUBSTITUTED ISOXAZOLIN CARBOXAMIDES AND CYPROSULFAMIDE” (Bayer Aktiengesellschaft, priority 2020, published 2023).

What was measured:
Assay type in all cases: in vivo, maize
ZEAMA Sileno [1] = test: Treatment 1 day before (safener applied one day before herbicide, post-emergence); design: key to Reduction [Difference]: percentage points of visually scored % crop damage vs untreated control; conditions: for Reduction [%] / Reduction [Difference]: cyprosulfamide 100 g a.i./ha 1 day before; for HER effect + SAF: cyprosulfamide 100 g a.i./ha applied 1 day before; for HER effect + SAF / HER effect: Final assessment; for HER effect: no safener
From the text: Seeds of crops (spring wheat, TRZAS; spring barley, HORVS; maize, ZEAMA) were placed in sandy loam soil in pots of a diameter of 7-8 cm, covered with soil, and cultivated in a greenhouse under good growth conditions until plants were at the 1-3 leaf stage (BBCH 11-13). For split safener and herbicide treatment, first the safener was applied followed by the herbicide treatment on the following day. The safener and herbicides were formulated as WP and sprayed onto the green parts of the plants as an aqueous suspension at an equivalent water application rate of 300 1/ha, with addition of wetting agent and adjuvants (e.g. Mero, 1.5 1/ha; ammonium sulphate, 2 kg/ha). An equivalent set of plants was treated with the herbicides but without the prior safener treatment.
After application, the test plants were kept in the greenhouse under good growth conditions. 10 and 21 days after treatment (DAT) with the herbicide, % crop damage observed on the treated plants was scored visually in comparison to control plants that had not received any safener or herbicide treatment.

ZEAMA Abraxas = test: Tank-mix; post-emergence, crop damage with and without safener; conditions: for HER effect + SAF / HER effect: Final assessment; for HER effect: no safener
Description: (§1) Seeds of crops (spring wheat, TRZAS; spring barley, HORVS; maize, ZEAMA) were placed in sandy loam soil in peat pots, covered with soil and cultivated in a greenhouse under good growth conditions. Two to three weeks after sowing, the test plants were treated at the 1 to 3-leaf stage. The herbicide/safener active compound combinations according to the invention, formulated as wettable powders or emulsion concentrates, and, in parallel tests, the correspondingly formulated individual active compounds were sprayed onto the green parts of the plants in various dosages using an amount of water of 300 1/ha (converted).
(§2) The pots were returned under good growing conditions in a glasshouse and a visual assessment of herbicidal effects was made at intervals from 1 to 3 weeks after herbicide application (DAT = days after treatment). Assessment was on a percentage basis in comparison with untreated control plants (0% = no injury, 100% = complete kill).

ZEAMA Sileno [2] = test: Seed treatment with safener; post-emergence herbicide application; design: Reduction [Difference]: scale not given here; conditions: Final assessment; for Reduction [%] / Reduction [Difference]: Cyprosulfamide 0.5 g a.i./kg seed; for Reduction [Difference]: damage without safener - damage with safener; for HER effect + SAF (crop damage with safener): Cyprosulfamide seed treatment 0.5 g a.i./kg seed; for HER effect (crop damage, herbicide without safener): no safener
Description: For the safener seed treatment, sufficient seeds of the respective crops (spring wheat, TRZAS; spring barley, HORVS; maize, ZEAMA) were weighed into screw top glass bottles approximately twice the volume of the seeds.
The specified safeners, formulated as wettable powder (WP) were weighed out so that the specified rates (g a.i./kg seed) would be obtained, dissolved in water (1 ml water per 10 g of seeds), and added to the seeds to produce a slurry.
The bottles were capped and then placed in an overhead shaker (set at medium speed for ca. 60 minutes) so that the seeds were evenly coated with the slurry. The bottles were uncapped and the seeds were either placed on paper and dried for an interval of 3-4 hours prior to sowing, or directly sown. Seeds were placed in sandy loam soil in pots of a diameter of 7-8 cm, covered with soil, and cultivated in a greenhouse under good growth conditions.
Post-emergence application of the specified herbicides was done when the plants had reached growth stage BBCH11-13, on two sets of plants:
a) seed treatment with safener, as described above b) no safener treatment
The herbicides were formulated as WP and sprayed onto the green parts of the plants as an aqueous suspension at an equivalent water application rate of 300 1/ha, with addition of wetting agent and adjuvants (e.g. Mero, 1.5 1/ha; ammonium sulphate, 2 kg/ha)
After application, the test plants were kept in the greenhouse under good growth conditions.
Values in the table below are mean values of at least 2 replicates.

ZEAMA Sileno [3] = test: Tank-mix; post-emergence, crop damage with and without safener; conditions: for HER effect + SAF / HER effect: Final assessment; for HER effect: no safener
Description: as §1, §2

[4] = HER 32 g a.i./ha, cyprosulfamide 100 g a.i./ha
[5] = HER dose 32 g a.i./ha + cyprosulfamide 100 g a.i./ha tank-mix
[6] = HER 2 g a.i./ha, cyprosulfamide 50 g a.i./ha
[7] = HER 2 g a.i./ha, cyprosulfamide 50 g a.i./ha, damage without safener - damage with safener
[8] = HER 8 g a.i./ha, cyprosulfamide 50 g a.i./ha
[9] = HER dose 2 g a.i./ha + cyprosulfamide 50 g a.i./ha tank-mix
[10] = HER dose 2 g a.i./ha, 0% = no injury, 100% = complete kill
[11] = HER dose 8 g a.i./ha + cyprosulfamide 50 g a.i./ha tank-mix

SMILES	Reduction [%] (ZEAMA Sileno [1]; HER 32 g a.i./ha)	Reduction [Difference] (ZEAMA Sileno [1]; HER 32 g a.i./ha)	HER effect + SAF (ZEAMA Sileno [1]; HER dose 32 g a.i./ha)	HER effect (ZEAMA Sileno [1]; HER dose 32 g a.i./ha)	Reduction [%] (ZEAMA Sileno [2]; HER dose 8 g a.i./ha)	Reduction [Difference] (ZEAMA Sileno [2]; HER dose 8 g a.i./ha)	HER effect + SAF (crop damage with safener) (ZEAMA Sileno [2]; HER dose 8 g a.i./ha)	HER effect (crop damage, herbicide without safener) (ZEAMA Sileno [2]; HER dose 8 g a.i./ha)	Reduction [%] (ZEAMA Sileno [2]; HER dose 32 g a.i./ha)	Reduction [Difference] (ZEAMA Sileno [2]; HER dose 32 g a.i./ha)	HER effect + SAF (crop damage with safener) (ZEAMA Sileno [2]; HER dose 32 g a.i./ha)	HER effect (crop damage, herbicide without safener) (ZEAMA Sileno [2]; HER dose 32 g a.i./ha)	Reduction [%] (ZEAMA Sileno [1]; HER 8 g a.i./ha)	Reduction [Difference] (ZEAMA Sileno [1]; HER 8 g a.i./ha)	HER effect + SAF (ZEAMA Sileno [1]; HER dose 8 g a.i./ha)	HER effect (ZEAMA Sileno [1]; HER dose 8 g a.i./ha)	Reduction [%] (ZEAMA Sileno [3]; [8])	Reduction [Difference] (ZEAMA Sileno [3]; [8])	HER effect + SAF (ZEAMA Sileno [3]; [11])	HER effect (ZEAMA Sileno [3]; HER dose 8 g a.i./ha)	further results
COCCOC(=O)C1C=CC(NC(=O)C2(CCl)CC(c3cc(F)cc(F)c3)=NO2)C1 (stereo not drawn) [Example 1.1]	79%	55	15%	70%	100%	30	0%	30%	100%	70	0%	70%									Reduction [%] (ZEAMA Abraxas; [4]): 84%; Reduction [Difference] (ZEAMA Abraxas; [4]): 80; HER effect + SAF (ZEAMA Abraxas; [5]): 15%; HER effect (ZEAMA Abraxas; HER dose 32 g a.i./ha): 95%
CCOC(=O)C1C=CC(NC(=O)C2(CF)CC(c3cc(F)cc(F)c3)=NO2)C1 (stereo not drawn) [Example 1.17]	59%	50	35%	85%	95%	90	5%	95%	82%	70	15%	85%	63%	60	35%	95%	53%	50	45%	95%	Reduction [%] (ZEAMA Sileno [1]; HER 2 g a.i./ha): 56%; Reduction [Difference] (ZEAMA Sileno [1]; HER 2 g a.i./ha): 25; HER effect + SAF (ZEAMA Sileno [1]; HER dose 2 g a.i./ha): 20%; HER effect (ZEAMA Sileno [1]; HER dose 2 g a.i./ha): 45%; Reduction [%] (ZEAMA Sileno [3]; [6]): 67%; Reduction [Difference] (ZEAMA Sileno [3]; [7]): 30; HER effect + SAF (ZEAMA Sileno [3]; [9]): 15%; HER effect (ZEAMA Sileno [3]; [10]): 45%; Reduction [%] (ZEAMA Sileno [2]; HER dose 2 g a.i./ha): 100%; Reduction [Difference] (ZEAMA Sileno [2]; HER dose 2 g a.i./ha): 45; HER effect + SAF (crop damage with safener) (ZEAMA Sileno [2]; HER dose 2 g a.i./ha): 0%; HER effect (crop damage, herbicide without safener) (ZEAMA Sileno [2]; HER dose 2 g a.i./ha): 45%
CC1(C(=O)NC2C=CC(C(=O)OCCSCc3ccccc3)C2)CC(c2cc(F)cc(F)c2)=NO1 (stereo not drawn) [Example 1.27]	67%	40	20%	60%	83%	25	5%	30%	75%	45	15%	60%									Reduction [%] (ZEAMA Sileno [3]; [4]): 67%; Reduction [Difference] (ZEAMA Sileno [3]; [4]): 40; HER effect + SAF (ZEAMA Sileno [3]; [5]): 20%; HER effect (ZEAMA Sileno [3]; HER dose 32 g a.i./ha): 60%
CN(C)C(=O)SCCOC(=O)C1C=CC(NC(=O)C2(C)CC(c3cc(F)cc(F)c3)=NO2)C1 (stereo not drawn) [Example 1.29]	73%	55	20%	75%	100%	60	0%	60%	93%	70	5%	75%	67%	40	20%	60%	67%	40	20%	60%	Reduction [%] (ZEAMA Sileno [3]; [4]): 60%; Reduction [Difference] (ZEAMA Sileno [3]; [4]): 45; HER effect + SAF (ZEAMA Sileno [3]; [5]): 30%; HER effect (ZEAMA Sileno [3]; HER dose 32 g a.i./ha): 75%
CC1(C(=O)NC2C=CC(C(=O)O)C2)CC(c2cc(F)cc(F)c2)=NO1 (stereo not drawn) [Example 1.36]	67%	50	25%	75%	94%	75	5%	80%	87%	65	10%	75%	69%	55	25%	80%	63%	50	30%	80%	Reduction [%] (ZEAMA Sileno [1]; HER 2 g a.i./ha): 63%; Reduction [Difference] (ZEAMA Sileno [1]; HER 2 g a.i./ha): 25; HER effect + SAF (ZEAMA Sileno [1]; HER dose 2 g a.i./ha): 15%; HER effect (ZEAMA Sileno [1]; HER dose 2 g a.i./ha): 40%; Reduction [%] (ZEAMA Sileno [3]; [6]): 50%; Reduction [Difference] (ZEAMA Sileno [3]; [7]): 20; HER effect + SAF (ZEAMA Sileno [3]; [9]): 20%; HER effect (ZEAMA Sileno [3]; [10]): 40%; Reduction [%] (ZEAMA Sileno [2]; HER dose 2 g a.i./ha): 88%; Reduction [Difference] (ZEAMA Sileno [2]; HER dose 2 g a.i./ha): 35; HER effect + SAF (crop damage with safener) (ZEAMA Sileno [2]; HER dose 2 g a.i./ha): 5%; HER effect (crop damage, herbicide without safener) (ZEAMA Sileno [2]; HER dose 2 g a.i./ha): 40%
C=CC1(C(=O)NC2C=C(C(=O)OCCOC)OC2)CC(c2cc(C)cc(F)c2)=NO1 (stereo not drawn) [Example 1.89]									88%	22	3%	25%									Reduction [%] (ZEAMA Abraxas; [8]): 100%; Reduction [Difference] (ZEAMA Abraxas; [8]): 30; Reduction [%] (ZEAMA Abraxas; [4]): 67%; Reduction [Difference] (ZEAMA Abraxas; [4]): 30; HER effect + SAF (ZEAMA Abraxas; [11]): 0%; HER effect (ZEAMA Abraxas; HER dose 8 g a.i./ha): 30%; HER effect + SAF (ZEAMA Abraxas; [5]): 15%; HER effect (ZEAMA Abraxas; HER dose 32 g a.i./ha): 45%
C=CC1(C(=O)NC2C=C(C(=O)OC)OC2)CC(c2cc(C)cc(C)c2)=NO1 (stereo not drawn) [Example 1.90]					73%	61	22%	83%	68%	64	30%	94%									Reduction [%] (ZEAMA Abraxas; [6]): 88%; Reduction [Difference] (ZEAMA Abraxas; [6]): 22; HER effect + SAF (ZEAMA Abraxas; [9]): 3%; HER effect (ZEAMA Abraxas; HER dose 2 g a.i./ha): 25%
